Measurements from US5830770A, “Hapten-protein conjugates for use in detection of organophosphorus compounds” (priority 1993, dated 1998).
Read-outs that look alike come from different tables or passages of the source.

Legend:
antisera from rabbit 19 [1] = assay type: binding; design: key: +++: strong; ++: medium; +: weak reaction; poor: slight; -: none; conditions: antisera 1:2000, 2 hours at 25° C.
Procedure: (§1) An ELISA was used to screen the antisera for polyclonal antibodies to the generic hapten/conjugate of the invention using the following protocol. Microtitre plates (Costar) were coated with the appropriate hapten conjugate with ovalbumin by diluting that in 0.05M sodium hydrogen carbonate/sodium carbonate buffer (pH 9.6) to give an optimum protein concentration of 1 μg/ml previously determined by chequerboard titration; protein found by Bradford assay. 100 μl was added to each microtitre plate well and the plates placed in a moist chamber overnight, washed 3 times with 0.15 phosphate buffered saline pH7.2 with 0.05% Tween 20[RTM]: PBST), and blotted dry. Blocking was carried out by adding 250 μl per well of 5% skimmed milk for 1 hour at 25° C.
(§2) After two further washings the coated microplates were stored at -20° C. until required, whereon they were washed once with PBST. Antisera were diluted (1/1000 for general screening or doubling dilutions up to 1/512,000 for titration assays) in PSBT, applied to microtitre wells in triplicate in 50 μl amounts and incubated in a moist chamber at 25° C. for 1 hour (appropriate positive and negative controls were included--PBST, negative rabbit serum and positive serum when it had been produced). Wells were then washed 3 times in PBST and 200 μl of a 1:1500 dilution of swine anti-rabbit immunoglobulin conjugated to horseradish peroxidase (DAKO) was added to each well. Plates were incubated once more for 1 hour at 25° C. then washed 3 times with PBST.
(§3) Tetramethylbenzidine (TMB) enzyme substrate solution was prepared by adding 400 μl of 6.0 g/l TMB in DMSO to 24.5 ml of 0.1M sodium acetate buffer pH5.5 with 100 μl of 1% H2 O2 and 100 μl added to the wells. The microplates were incubated for 15 minutes in the dark at 25° C. before the reaction was stopped by adding 50 μl of 2.5M H2 SO4 and the absorbance read at 450 nm against air. Results: are given below with those of Example 6.
(§4) Assay was carried out in the same manner as Example 5 with the following modifications. Antisera was diluted 1:2000 with 1% BSA in PBST and 100 μl was incubated for 2 hours at 25° C. with 100 μl of each concentration of the unconjugated OP--in this case the generic part--in a microtitration plate. Concentrations of OP ranged from 200 to 0.001 μg ml^-1.
(§5) Cross reactivity of antisera from rabbits 19, 20 and 21 by inhibition ELISA with the various organophosphorus pesticides is shown in Table 5 in which concentration (μg ml^-1) for 50% inhibition to occur is given together with the diluent in which this is achieved--PBST or % methanol in PBST for figures.

antisera from rabbit 21 [2] = assay type: binding; design: key: +++: strong; ++: medium; +: weak reaction; poor: slight; -: none; conditions: antisera 1:2000, 2 hours at 25° C.
Procedure: as §1, §2, §3, §4, §5

antisera from rabbit 20 [3] = assay type: binding; design: key to cross reactivity by inhibition ELISA, Rabbit 20: +++: strong; ++: medium; +: weak reaction; poor: slight; -: none; conditions: for cross reactivity by inhibition ELISA, Rabbit 20: antisera 1:2000, 2 hours at 25° C.; for concentration for 50% inhibition: Rabbit 20
Procedure: as §1, §2, §3, §4, §5

generic antibodies = test: Relative inhibition of binding of generic antibodies to hapten conjugate; design: species or system rabbit; conditions: inhibition at 100 μg/ml minus inhibition at 0.1 μg/ml organophosphate
Procedure: as §4

antisera from rabbit 19 [4] = test: Competitive/inhibition ELISA, antisera pre-incubated with unconjugated OP, 1 μg/ml OP-Ova; assay type: binding; conditions: 1 hour at 25° C.
Procedure: as §1, §2, §3
(§6) This assay was carried out in the same manner as that of Example 5 with the following modifications. After plate coating the various dilutions of antisera were incubated with various concentrations of analyte solution for 1 to 2 hours at 25° C. or overnight at 4° C. Antiserum dilutions tested were 1/1000, 1/2000, 1/5000 and 1/10000 and the concentrations of the analyte ranged from 200 to 0.001 μg/ml. Coating of generic hapten-ovalbumin was at 1 μg/ml and later other coating strengths were tested ranging from 400 to 12.5 ng/ml. Note: cross reactivity in all cases was checked by carrying out an indirect ELISA where plates were coated with the blocking agents or BSA or ovalbumin at 1 μg/ml. Skimmed milk, foetal calf serum (both 5%), caesin (0.3%) or fish skin gelatin (0.5%) were selected as the blocking agent in this regard. Use of competitive assay is preferred for determining cross-reactivity.
(§7) 400 to 0.012 μg/ml conjugate for 200 to 0.001 μg/ml analyte detection.

antisera from rabbit 21 [5] = test: as above; assay type: binding; conditions: 1 hour at 25° C.
Procedure: as §1, §2, §3, §6, §7

antisera from rabbit 20 [6] = test: as above; assay type: binding; conditions: 1 hour at 25° C.
Procedure: as §1, §2, §3, §6, §7

Rabbit 20 antisera = test: Competitive/inhibition ELISA, antisera preincubated with OP for 2 hours, plate coated with 400 μg/ml OP-Ova; assay type: binding; conditions: 2 hours at 25° C.
Procedure: as §1, §2, §3, §6, §7

Structure (SMILES): COP(=S)(OC)Oc1nc(Cl)c(Cl)cc1Cl [Chlorpyrifos-methyl]
- cross reactivity by inhibition ELISA, Rabbit 19 (antisera from rabbit 19 [1]): poor
- cross reactivity by inhibition ELISA, Rabbit 21 (antisera from rabbit 21 [2]): poor
- cross reactivity by inhibition ELISA, Rabbit 20 (antisera from rabbit 20 [3]): poor
- Relative inhibition of binding of generic antibodies to hapten conjugate as % of hapten + spacer inhibition (generic antibodies): 29.2%

Structure (SMILES): CCOC(=O)CC(SP(=S)(OC)OC)C(=O)OCC (stereo not drawn) [Malathion, malathion]
- cross reactivity by inhibition ELISA, Rabbit 19 (antisera from rabbit 19 [1]): -
- cross reactivity by inhibition ELISA, Rabbit 21 (antisera from rabbit 21 [2]): -
- cross reactivity by inhibition ELISA, Rabbit 20 (antisera from rabbit 20 [3]): +
- Relative inhibition of binding of generic antibodies to hapten conjugate as % of hapten + spacer inhibition (generic antibodies): 38.6%

Structure (SMILES): COP(=S)(OC)OCCCCO [Hapten + spacer, (CH3 O)2 P(S)--O--(CH2)4 --OH]
- cross reactivity by inhibition ELISA, Rabbit 19 (antisera from rabbit 19 [1]): +++
- cross reactivity by inhibition ELISA, Rabbit 21 (antisera from rabbit 21 [2]): +++
- concentration for 50% inhibition (antisera from rabbit 20 [3]; diluent PBST): 3.0 µg/mL
- cross reactivity by inhibition ELISA, Rabbit 20 (antisera from rabbit 20 [3]): +++
- Relative inhibition of binding of generic antibodies to hapten conjugate as % of hapten + spacer inhibition (generic antibodies): 100.0%

Structure (SMILES): COP(=S)(OC)OCCCCO [OP]
- absorbance after pre-incubation with OP (antisera from rabbit 19 [4]; OP 0.01 μg/ml): 1.83
- absorbance after pre-incubation with OP (antisera from rabbit 19 [4]; OP 0.1 μg/ml): 1.73
- absorbance after pre-incubation with OP (antisera from rabbit 19 [4]; OP 0.4 μg/ml): 1.66
- absorbance after pre-incubation with OP (antisera from rabbit 19 [4]; OP 3.1 μg/ml): 1.50
- absorbance after pre-incubation with OP (antisera from rabbit 19 [4]; OP 12.5 μg/ml): 1.36
- absorbance after pre-incubation with OP (antisera from rabbit 19 [4]; OP 50.0 μg/ml): 1.34
- absorbance after pre-incubation with OP (antisera from rabbit 21 [5]; OP 0.01 μg/ml): 1.52
- absorbance after pre-incubation with OP (antisera from rabbit 21 [5]; OP 0.1 μg/ml): 1.42
- absorbance after pre-incubation with OP (antisera from rabbit 21 [5]; OP 0.4 μg/ml): 1.45
- absorbance after pre-incubation with OP (antisera from rabbit 21 [5]; OP 3.1 μg/ml): 1.34
- absorbance after pre-incubation with OP (antisera from rabbit 21 [5]; OP 12.5 μg/ml): 1.02
- absorbance after pre-incubation with OP (antisera from rabbit 21 [5]; OP 50.0 μg/ml): 1.24
- absorbance after pre-incubation with OP (antisera from rabbit 20 [6]; OP 0.01 μg/ml): 1.95
- absorbance after pre-incubation with OP (antisera from rabbit 20 [6]; OP 0.1 μg/ml): 1.95
- absorbance after pre-incubation with OP (antisera from rabbit 20 [6]; OP 0.4 μg/ml): 1.81
- absorbance after pre-incubation with OP (antisera from rabbit 20 [6]; OP 3.1 μg/ml): 1.54
- absorbance after pre-incubation with OP (antisera from rabbit 20 [6]; OP 12.5 μg/ml): 1.31
- absorbance after pre-incubation with OP (antisera from rabbit 20 [6]; OP 50.0 μg/ml): 1.19
- absorbance after preincubation with OP (Rabbit 20 antisera; antisera 1/1000, OP conc 0.001): 1.38
- absorbance after preincubation with OP (Rabbit 20 antisera; antisera 1/1000, OP conc 0.01): 1.58
- absorbance after preincubation with OP (Rabbit 20 antisera; antisera 1/1000, OP conc 0.1): 1.48
- absorbance after preincubation with OP (Rabbit 20 antisera; antisera 1/1000, OP conc 1.0): 1.24
- absorbance after preincubation with OP (Rabbit 20 antisera; antisera 1/1000, OP conc 10.0): 0.94
- absorbance after preincubation with OP (Rabbit 20 antisera; antisera 1/1000, OP conc 20.0): 0.87
- absorbance after preincubation with OP (Rabbit 20 antisera; antisera 1/1000, OP conc 100.0): 0.82
- absorbance after preincubation with OP (Rabbit 20 antisera; antisera 1/1000, OP conc 200.0): 0.89
- absorbance after preincubation with OP (Rabbit 20 antisera; antisera 1/2000, OP conc 0.001): 1.10
- absorbance after preincubation with OP (Rabbit 20 antisera; antisera 1/2000, OP conc 0.01): 1.11
- absorbance after preincubation with OP (Rabbit 20 antisera; antisera 1/2000, OP conc 0.1): 1.04
- absorbance after preincubation with OP (Rabbit 20 antisera; antisera 1/2000, OP conc 1.0): 0.87
- absorbance after preincubation with OP (Rabbit 20 antisera; antisera 1/2000, OP conc 10.0): 0.74
- absorbance after preincubation with OP (Rabbit 20 antisera; antisera 1/2000, OP conc 20.0): 0.67
- absorbance after preincubation with OP (Rabbit 20 antisera; antisera 1/2000, OP conc 100.0): 0.67
- absorbance after preincubation with OP (Rabbit 20 antisera; antisera 1/2000, OP conc 200.0): 0.69

Structure (SMILES): COP(=O)(OC)OC=C(Cl)Cl [Dichlorvos, dichlorvos]
- cross reactivity by inhibition ELISA, Rabbit 19 (antisera from rabbit 19 [1]): ++
- cross reactivity by inhibition ELISA, Rabbit 21 (antisera from rabbit 21 [2]): +
- concentration for 50% inhibition (antisera from rabbit 20 [3]; diluent PBST): 91.1 µg/mL
- cross reactivity by inhibition ELISA, Rabbit 20 (antisera from rabbit 20 [3]): ++
- Relative inhibition of binding of generic antibodies to hapten conjugate as % of hapten + spacer inhibition (generic antibodies): 60.0%

Structure (SMILES): CCNP(=S)(OC)O/C(C)=C/C(=O)OC(C)C (stereo not drawn) [Propetamphos, propetamphos]
- cross reactivity by inhibition ELISA, Rabbit 19 (antisera from rabbit 19 [1]): +
- cross reactivity by inhibition ELISA, Rabbit 21 (antisera from rabbit 21 [2]): ++
- concentration for 50% inhibition (antisera from rabbit 20 [3]; diluent 10% methanol in PBST): 36.2 µg/mL
- cross reactivity by inhibition ELISA, Rabbit 20 (antisera from rabbit 20 [3]): +++
- Relative inhibition of binding of generic antibodies to hapten conjugate as % of hapten + spacer inhibition (generic antibodies): 75.9%

Structure (SMILES): CCOP(=O)(OCC)OC(=CCl)c1ccc(Cl)cc1Cl [Chlorfenvinphos, chlorfenvinphos]
- cross reactivity by inhibition ELISA, Rabbit 19 (antisera from rabbit 19 [1]): -
- cross reactivity by inhibition ELISA, Rabbit 21 (antisera from rabbit 21 [2]): +
- cross reactivity by inhibition ELISA, Rabbit 20 (antisera from rabbit 20 [3]): +
- Relative inhibition of binding of generic antibodies to hapten conjugate as % of hapten + spacer inhibition (generic antibodies): 33.4%

Structure (SMILES): CNC(=O)CSP(=S)(OC)OC [Dimethoate, dimethoate]
- cross reactivity by inhibition ELISA, Rabbit 19 (antisera from rabbit 19 [1]): -
- cross reactivity by inhibition ELISA, Rabbit 21 (antisera from rabbit 21 [2]): +
- concentration for 50% inhibition (antisera from rabbit 20 [3]; diluent 10% methanol in PBST): > 150 µg/mL
- cross reactivity by inhibition ELISA, Rabbit 20 (antisera from rabbit 20 [3]): ++
- Relative inhibition of binding of generic antibodies to hapten conjugate as % of hapten + spacer inhibition (generic antibodies): 41.4%
